Source: patent US5858684A, “Method of screening calcium receptor-active molecules” (priority 1995, dated 1999)
Entries after “also recorded” stand apart in the source; their conditions may differ. Where two headings read alike, the source gives them in different places.

Experiments:
[1] = system: human parathyroid calcium receptor (HuPCaR 5.2) in HEK293 cells; experiment: intracellular calcium in HEK293 cells transfected with HuPCaR 5.2; type: cell-based; settings: Ca2+ 10 mM; Mg2+ 20 mM
Method: Cells obtained from the pool of hygromycin selected HEK293 cells transfected with Cep4B containing the HuPCaR 5.2 insert were plated on collagen coated Aklar squares which had been placed into individual wells of 12-well tissue culture plates. Two to six days later, medium was removed and the cells washed with balanced salt solution and 1 ml of buffer containing 1 μM fura2-AM, 1 mM CaCl2 and 0.1% BSA and 1 mM CaCl2. Measurements of fluorescence in response to calcium receptor agonists were performed at 37° C. in a spectrofluorimeter using excitation and emission wavelengths of 340 and 510 nm, respectively. For signal calibration, Fmax was determined after addition of ionomycin (40 μM) and the apparent Fmin was determined by addition of 0.3M EGTA, 2.5M Tris-HCl; pH 10.

[2] = serum ionized Ca2+ in 5/6 nephrectomized rats (secondary hyperparathyroidism model); type: in vivo, rat; settings: 10 mg/kg i.p.; within 2 hours
Description: An accepted and widely used animal model of secondary hyperparathyroidism arising from chronic renal failure is the 5/6 nephrectomized rat. Animals receiving such surgery become initially hypocalcemic and, to maintain serum Ca^2+ levels, there is a compensatory hyperplasia of the parathyro:Ld glands and elevated levels of circulating PTH. Male Spracue-Dawley rats (250 g) received a 5/6 nephrectomy and were allowed to recover for 2 weeks. At this time they were normocalcemic (due to elevated levels of serum PTH).

circulating PTH in rats = type: in vivo, rat
[3] = serum calcitonin in a human; type: in vivo; settings: single oral doses 20-400 mg
Description: A range of single oral doses was used to assess safety, tolerance, and changes in primary hyperparathyroidism markers (e.g., plasma concentrations of parathyroid hormone and ionized serum calcium) and of serum calcitonin.

[4] = hypocalcemic response in nephrectomized rats; type: in vivo, rat; settings: oral
Description: The decreases in serum levels of PTH together with. the resulting hypocalcemia are desirable therapeutic effects in cases of hyperparathyroidism.

[5] = target: T1, human parathyroid cells (calcium receptor) (Homo sapiens, UniProt P41180); type: cell-based
T1 sequence (P41180 20-1078): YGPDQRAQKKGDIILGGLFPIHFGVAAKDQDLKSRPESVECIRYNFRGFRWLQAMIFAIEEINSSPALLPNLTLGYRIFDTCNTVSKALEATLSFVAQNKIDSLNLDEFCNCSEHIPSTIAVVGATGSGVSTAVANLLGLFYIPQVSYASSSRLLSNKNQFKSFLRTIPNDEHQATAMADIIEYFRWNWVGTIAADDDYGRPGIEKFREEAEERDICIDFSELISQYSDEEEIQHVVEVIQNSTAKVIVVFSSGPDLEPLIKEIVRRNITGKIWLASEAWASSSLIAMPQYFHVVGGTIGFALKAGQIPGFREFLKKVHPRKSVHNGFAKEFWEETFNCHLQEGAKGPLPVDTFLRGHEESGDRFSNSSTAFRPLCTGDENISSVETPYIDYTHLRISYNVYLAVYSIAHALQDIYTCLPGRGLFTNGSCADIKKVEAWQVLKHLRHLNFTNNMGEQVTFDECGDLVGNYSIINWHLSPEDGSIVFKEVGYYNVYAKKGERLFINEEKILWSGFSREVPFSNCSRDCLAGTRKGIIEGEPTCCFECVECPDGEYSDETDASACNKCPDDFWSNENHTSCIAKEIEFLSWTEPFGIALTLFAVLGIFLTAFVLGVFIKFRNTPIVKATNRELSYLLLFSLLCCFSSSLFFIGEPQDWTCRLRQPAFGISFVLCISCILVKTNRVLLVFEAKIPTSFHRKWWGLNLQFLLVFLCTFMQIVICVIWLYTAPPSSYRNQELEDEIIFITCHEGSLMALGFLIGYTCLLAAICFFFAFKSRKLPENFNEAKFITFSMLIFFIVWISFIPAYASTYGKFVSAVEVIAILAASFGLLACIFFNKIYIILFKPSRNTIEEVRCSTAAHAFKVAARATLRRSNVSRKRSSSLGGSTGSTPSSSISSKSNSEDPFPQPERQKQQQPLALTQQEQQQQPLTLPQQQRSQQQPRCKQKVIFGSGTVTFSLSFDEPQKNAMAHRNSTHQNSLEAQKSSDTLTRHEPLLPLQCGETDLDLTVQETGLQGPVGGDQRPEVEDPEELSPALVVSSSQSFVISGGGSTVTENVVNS
Method: Human parathyroid glands, were obtained from patients undergoing surgical removal of parathyroid tissue for primary or uremic hyperparathyroidism (uremic HPT), and were treated similarly to bovine tissue.
The cells were then pelleted, resuspended in the same buffer, but lacking the ester, and incubated a further 15 minutes at 37° C. The cells were subsequently washed twice with PCB containing 0.5 mM CaCl2 and 0.5% BSA and maintained at room temperature (about 20° C.). Immediately before use, the cells were diluted five-fold with prewarmed 0.5 mM CaCl2 -PCB to obtain a final BSA concentration of 0.1%. The concentration of cells in the cuvette used for fluorescence recording was 1-2×10^6 /ml.
The fluorescence of indicator-loaded cells was measured at 37° C. in a spectrofluorimeter (Biomedical Instrumentation Group, University of Pennsylvania, Philadelphia, Pa.) equipped with a thermostated cuvette holder and magnetic stirrer using excitation and emission wavelengths of 340 and 510 nm, respectively. […] Leakage of dye is dependent on temperature and most occurs within the first 2 minutes after warming the cells in the cuvette. Dye leakage increases only very slowly thereafter. To correct the calibration for dye leakage, cells were placed in the cuvette and stirred at 37° C. for 2-3 minutes. The cell suspension was then removed, the cells pelleted, and the supernatant returned to a clean cuvette. […] This estimate was subtracted from the apparent Fmin.

[6] = system: cyclic AMP formation in bovine parathyroid cells; type: cell-based
Method: Cells were incubated as above for PTH secretion studies and at the end of the incubation, a 0.15-ml sample was taken and transferred to 0.85 ml of hot (70° C.) water and heated at this temperature for 5-10 minutes. The tubes were subsequently frozen and thawed several times and the cellular debris sedimented by centrifugation. Portions of the supernatant were acetylated and cyclic AMP concentrations determined by radioimmunoassay.
Each value is the mean±SEM of three experiments.

[7] = system: PTH secretion from bovine parathyroid cells; experiment: PTH secretion from bovine parathyroid cells; type: cell-based; settings: bovine parathyroid cells
Method: PTH secretion was measured by first suspending cells in PCB containing 0.5 mM CaCl2 and 0.1% BSA.

net positive charge = type: physicochemical

SMILES: COc1cccc([C@@H](C)NCCCc2ccccc2)c1 (single isomer, unassigned) [NPS R-467]
- increase in intracellular calcium [1]: Robust increases
- serum ionized Ca2+ as % of controls [2]: 83 % of controls

SMILES: COc1cccc([C@@H](C)NCCCc2ccccc2Cl)c1 [NPS R-568, (R)-(+)-N-[3-(2-chlorophenyl)propyl]-amethyl-α-3-methoxybenzylamine]
- circulating levels of PTH (circulating PTH in rats): decreases in the levels of serum PTH; also recorded: rapid, dose-dependent decrease
- serum calcitonin in human [3]: no apparent change in serum calcitonin
- hypocalcemic response after complete nephrectomy [4]: only marginally affected

SMILES: NC[C@@H]1O[C@H](O[C@H]2[C@@H](O)[C@H](O[C@@H]3[C@@H](O)[C@H](N)C[C@H](N)[C@H]3O[C@H]3O[C@H](CN)[C@@H](O)[C@H](O)[C@H]3N)O[C@@H]2CO)[C@H](N)[C@@H](O)[C@@H]1O [Neomycin]
- increase in [Ca2+]i (words) ([5]; 20 μM): evoked a large increase
- increase in [Ca2+]i (words) ([5]; human adenomatous tissue, 0.5 mM extracellular Ca2+, neomycin B 10 μM in FIG. 19, listed as Neomycin B): not only a transient, but additionally a steady-state increase
- increase in [Ca2+]i (words) ([5]; human adenomatous tissue, 0.5 mM extracellular Ca2+, neomycin B 10 μM in FIG. 19, listed as neomycin B): transient and sustained increases
- isoproterenol-induced cyclic AMP [6]: depressed isoproterenol-induced increases
- inhibition of PTH secretion [7]: inhibited PTH secretion to the same extent
- Net (+) Charge (Table 1) (net positive charge): +6
- net positive charge (net positive charge): +6
- net positive charge (net positive charge; pH 7.3): +6
